Assay results: ChEMBL document CHEMBL5108050, “Discovery of a New Class of Uracil Derivatives as Potential Mixed Lineage Kinase Domain-like Protein (MLKL) Inhibitors” (J Med Chem, 2022)
Active and inactive are the calls of the source. The rule behind the calls is not given here.

Key:
HT-29 [1] = assay: Anti-necroptic activity in human HT-29 cells assessed as inhibition of TSZ (TNFalpha, Smac mimetic and z-VAD-FMK) induced necroptosis incubated for 24 hrs by celltiter-glo luminescent cell viability assay; assay type: functional, cell-based; conditions: HT-29, 24 h
[2] = molecular target: T1, Mixed lineage kinase domain-like protein (Homo sapiens) (UniProt Q8NB16); assay: Inhibition of human MLKL in human HT-29 cells assessed as inhibition of TSZ (TNFalpha, Smac mimetic and z-VAD-FMK) induced MLKL oligomerization at 200 nM and measured after 6 hrs by immunoblot assay; assay type: cell-based
T1 sequence (whole entry): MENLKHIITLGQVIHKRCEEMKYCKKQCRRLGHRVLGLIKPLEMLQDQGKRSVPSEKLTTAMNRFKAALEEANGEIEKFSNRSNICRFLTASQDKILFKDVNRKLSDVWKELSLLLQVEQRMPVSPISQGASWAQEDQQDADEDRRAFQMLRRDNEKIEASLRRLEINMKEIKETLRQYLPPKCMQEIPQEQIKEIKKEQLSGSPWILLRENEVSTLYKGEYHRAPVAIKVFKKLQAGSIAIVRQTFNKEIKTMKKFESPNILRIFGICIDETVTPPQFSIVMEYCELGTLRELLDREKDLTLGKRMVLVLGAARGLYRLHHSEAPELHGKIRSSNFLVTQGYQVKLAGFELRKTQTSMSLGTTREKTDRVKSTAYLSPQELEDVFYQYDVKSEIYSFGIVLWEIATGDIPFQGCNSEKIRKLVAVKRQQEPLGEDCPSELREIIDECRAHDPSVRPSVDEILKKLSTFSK

HT-29 [3] = assay: Anti-necroptic activity in human HT-29 KO cells expressing MLKL F148A mutant assessed as inhibition of TSZ (TNFalpha, Smac mimetic and z-VAD-FMK) induced MLKL F148A mutant mediated necroptosis incubated for 24 hrs by celltiter-glo luminescent cell viability assay; assay type: functional, cell-based
HT-29 [4] = assay: Anti-necroptic activity in human HT-29 KO cells expressing MLKL K157A mutant assessed as inhibition of TSZ (TNFalpha, Smac mimetic and z-VAD-FMK) induced MLKL K157A mutant mediated necroptosis incubated for 24 hrs by celltiter-glo luminescent cell viability assay; assay type: functional, cell-based
[5] = GSH reactivity in DPBS buffer assessed as conjugation half life by UPLC-MS analysis; assay type: ADME; conditions: glutathione (GSH) in DPBS buffer
[6] = molecular target: T2, Receptor-interacting serine/threonine-protein kinase 1 (Homo sapiens) (UniProt Q13546); assay: Inhibition of TSZ (TNFalpha, Smac mimetic and z-VAD-FMK) induced RIPK1 phosphorylation in human HT-29 cells assessed as decrease in phosphorylated RIPK1 level incubated for 8 hrs by western blot analysis; assay type: cell-based
T2 sequence (whole entry): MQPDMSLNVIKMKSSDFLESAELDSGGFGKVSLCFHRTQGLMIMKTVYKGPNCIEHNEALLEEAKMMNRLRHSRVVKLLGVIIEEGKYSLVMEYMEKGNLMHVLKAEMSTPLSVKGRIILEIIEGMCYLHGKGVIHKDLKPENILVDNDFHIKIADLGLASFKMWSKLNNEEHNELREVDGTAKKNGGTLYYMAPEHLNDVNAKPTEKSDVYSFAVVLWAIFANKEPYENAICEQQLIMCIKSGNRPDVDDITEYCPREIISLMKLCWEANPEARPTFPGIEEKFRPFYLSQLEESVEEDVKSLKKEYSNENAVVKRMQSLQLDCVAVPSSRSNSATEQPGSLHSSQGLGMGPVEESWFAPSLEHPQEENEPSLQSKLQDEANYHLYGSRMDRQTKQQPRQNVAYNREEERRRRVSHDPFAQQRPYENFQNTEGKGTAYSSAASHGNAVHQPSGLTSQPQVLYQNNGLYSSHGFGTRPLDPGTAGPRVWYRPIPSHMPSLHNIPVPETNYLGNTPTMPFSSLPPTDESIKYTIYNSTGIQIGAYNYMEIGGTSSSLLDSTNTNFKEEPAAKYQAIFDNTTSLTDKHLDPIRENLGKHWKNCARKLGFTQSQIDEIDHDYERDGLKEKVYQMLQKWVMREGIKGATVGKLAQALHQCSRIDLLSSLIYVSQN

MEF = assay: Anti-necroptic activity in mouse MEF cells assessed as inhibition of TSZ (TNFalpha, Smac mimetic and z-VAD-FMK) induced necroptosis incubated for 24 hrs by celltiter-glo luminescent cell viability assay; assay type: functional, cell-based
[7] = molecular target: T1, Mixed lineage kinase domain-like protein (Homo sapiens); assay: (§1) Inhibition of FLAG-tagged human MLKL in human HT-29 cells assessed as inhibition of TSZ (TNFalpha, Smac mimetic and z-VAD-FMK) induced MLKL phosphorylation at 1 uM and measured after 8 hrs by Hoechst 33342 staining based immunofluorescence analysis; assay type: cell-based
[8] = GSH reactivity in DPBS buffer assessed as fold decrease in reaction rate by UPLC-MS analysis relative to control; assay type: ADME
[9] = molecular target: T1, Mixed lineage kinase domain-like protein (Homo sapiens); assay: Displacement of biotin-tagged TCI3136 binding from human recombinant MLKL at Cys86 residues in human HT-29 cell lysate assessed as biotin labeled ligand-protein complex pull down at 5 uM preincubated with compound for 1 hr followed by probe addition for 1 hrs and further incubated with biotinylation of probe by click chemistry reaction for 2 hrs by pull-down assay; assay type: subcellular; conditions: time 4.0 hrs
[10] = molecular target: T1, Mixed lineage kinase domain-like protein (Homo sapiens); assay: Inhibition of human MLKL in human HT-29 cells assessed as inhibition of TSZ (TNFalpha, Smac mimetic and z-VAD-FMK) induced MLKL oligomerization at 1 uM and measured after 6 hrs by immunoblot assay; assay type: cell-based
[11] = molecular target: T1, Mixed lineage kinase domain-like protein (Homo sapiens); assay: Inhibition of human MLKL in human HT-29 cells assessed as inhibition of TSZ (TNFalpha, Smac mimetic and z-VAD-FMK) induced MLKL translocation to cell membrane at 1 uM and measured after 8 hrs by western blot analysis; assay type: cell-based
[12] = molecular target: T1, Mixed lineage kinase domain-like protein (Homo sapiens); assay: as §1, with “phosphorylation by measuring dispersed phosphorylated MLKL in cytoplasm” for “phosphorylation”; assay type: cell-based
[13] = molecular target: Receptor-interacting serine/threonine-protein kinase 3 (Homo sapiens) (UniProt Q9Y572); assay: Inhibition of full length RIP3 (unknown origin) assessed as substrate phosphorylation using MBP and ATP as substrate at 1 uM preincubated for 15 mins followed by substrate addition and measured after 90 mins by ADP-Glo luminescence assay; values are per cent of control; conditions: time 105.0 min
Chain of Receptor-interacting serine/threonine-protein kinase 3 (Homo sapiens) (Q9Y572 whole entry, looked up, the tested form may be a part): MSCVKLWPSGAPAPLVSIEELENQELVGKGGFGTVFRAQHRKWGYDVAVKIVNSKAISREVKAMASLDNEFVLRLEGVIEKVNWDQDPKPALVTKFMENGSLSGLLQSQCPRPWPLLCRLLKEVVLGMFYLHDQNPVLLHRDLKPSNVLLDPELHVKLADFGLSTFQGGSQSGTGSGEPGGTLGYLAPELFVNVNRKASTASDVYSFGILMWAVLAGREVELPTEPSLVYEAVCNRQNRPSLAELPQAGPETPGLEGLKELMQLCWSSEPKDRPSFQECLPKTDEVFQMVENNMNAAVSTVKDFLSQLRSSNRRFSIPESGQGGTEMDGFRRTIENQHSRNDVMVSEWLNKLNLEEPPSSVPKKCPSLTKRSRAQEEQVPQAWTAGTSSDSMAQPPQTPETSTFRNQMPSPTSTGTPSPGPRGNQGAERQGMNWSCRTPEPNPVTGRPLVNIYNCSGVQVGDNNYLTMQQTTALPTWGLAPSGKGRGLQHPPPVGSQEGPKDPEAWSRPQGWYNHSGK

[14] = molecular target: Receptor-interacting serine/threonine-protein kinase 3 (Homo sapiens) (UniProt Q9Y572); assay: Inhibition of full length RIP3 (unknown origin) assessed as substrate phosphorylation using MBP and ATP as substrate at 10 uM preincubated for 15 mins followed by substrate addition and measured after 90 mins by ADP-Glo luminescence assay; values are per cent of control; conditions: time 105.0 min
[15] = molecular target: T2, Receptor-interacting serine/threonine-protein kinase 1 (Homo sapiens); assay: Inhibition of RIP1 (1 to 375 residues) (unknown origin) assessed as substrate phosphorylation using MBP and ATP as substrate at 1 uM preincubated for 15 mins followed by substrate addition and measured after 90 mins by ADP-Glo luminescence assay; values are per cent of control; conditions: time 105.0 min
[16] = molecular target: T2, Receptor-interacting serine/threonine-protein kinase 1 (Homo sapiens); assay: Inhibition of RIP1 (1 to 375 residues) (unknown origin) assessed as substrate phosphorylation using MBP and ATP as substrate at 10 uM preincubated for 15 mins followed by substrate addition and measured after 90 mins by ADP-Glo luminescence assay; values are per cent of control; conditions: time 105.0 min
HT-29 [17] = assay: Anti-necroptic activity in human HT-29 cells assessed as inhibition of TSZ induced necroptosis incubated for 5 min followed by compound washout and further induced with TSZ by celltiter-glo luminescent cell viability assay; assay type: functional, cell-based; conditions: HT-29, 5 min
HT-29 [18] = assay: Anti-necroptic activity in human HT-29 cells assessed as inhibition of TSZ induced necroptosis incubated for 1 hr followed by compound washout and further induced with TSZ by celltiter-glo luminescent cell viability assay; assay type: functional, cell-based; conditions: HT-29, 1 h
HT-29 [19] = assay: Anti-necroptic activity in human HT-29 cells assessed as inhibition of TSZ induced necroptosis incubated for 3 hr followed by compound washout and further induced with TSZ by celltiter-glo luminescent cell viability assay; assay type: functional, cell-based; conditions: HT-29, 3 h
[20] = molecular target: T1, Mixed lineage kinase domain-like protein (Homo sapiens); assay: Covalent binding affinity to human recombinant MLKL at Cys86 residue assessed as covalent additive product formation by LC-MS/MS analysis
HT-29 [21] = assay: Anti-necroptic activity in human HT-29 cells assessed as inhibition of TSZ induced necroptosis incubated for 3 hrs followed by TSZ stimulation by celltiter-glo luminescent cell viability assay; assay type: functional, cell-based; conditions: HT-29, 3 h
[22] = molecular target: T1, Mixed lineage kinase domain-like protein (Homo sapiens); assay: Inhibition of human MLKL in human HT-29 cells assessed as inhibition of TSZ (TNFalpha, Smac mimetic and z-VAD-FMK) induced MLKL oligomerization at 5 uM and measured after 6 hrs by immunoblot assay; assay type: cell-based

SMILES | EC50 (HT-29 [1]) | inhibition (HT-29 [4]) | fold change (FC) [8] | Activity [9] | inhibition [10] | inhibition [11] | residual activity [13] | residual activity [14] | residual activity [16] | further results
Cn1c(=O)c2c(nc(S(C)(=O)=O)n2C)n(CC#Cc2cccc(O)c2)c1=O | 0.002 µM | Active | – | – | – | – | – | – | – | inhibition [2]: Active; inhibition (HT-29 [3]): Active; half-life [5]: 20 min
CCC(C)(C)C(=O)N(O)Cc1ccccc1 | – | – | – | – | – | – | – | – | – | inhibition [6]: Active; inhibition (MEF): Active; inhibition [7]: Active
COc1cccn(Cc2cc(C#CCn3c(Cl)c(NC(=O)CCc4ccc(C)cc4)c(=O)n(C)c3=O)ccc2O)c1=O | 0.031 µM | Active | 150 | Active | Active | Active | 110% | 110% | 101% | inhibition [12]: Active; residual activity [15]: 117%
Cc1ccc(CCC(=O)Nc2c(Cl)n(CC#Cc3ccc(O)c(Cn4ccccc4=O)c3)c(=O)n(C)c2=O)cc1 | 0.082 µM | Active | 150 | Active | Active | Active | 100% | 99.8% | 82.6% | EC50 (HT-29 [17]): > 10 µM; EC50 (HT-29 [18]): 0.584 µM; EC50 (HT-29 [19]): 0.18 µM; Activity [20]: Active; EC50 (HT-29 [21]): 0.188 µM
COc1nccnc1NSc1ccc(NC(=O)/C=C/c2ccc([N+](=O)[O-])s2)cc1 | – | Active | – | – | – | – | – | – | – | inhibition [22]: Active
